Results reported in PubChem BioAssay (NCI).
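Step 1: Grow cells in 96-well plates. Step 2: Expose to compound for 48 hours at 5 concentrations. Step 3: Interpolate endpoints linearly; if unreached, use highest concentration. Abbreviation: GI50, concentration required for 50% inhibition of growth. TGI is the concentration that stops growth completely.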

Key:
Experiment in all cases: DTP human tumour cell line panel, 48 h
SF-539 CNS = tested on: SF-539 CNS
OVCAR-4 ovarian = tested on: OVCAR-4 ovarian
ACHN renal = tested on: ACHN renal
U251 CNS = tested on: U251 CNS
SF-268 CNS = tested on: SF-268 CNS
SR leukemia = tested on: SR leukemia
NCI-H460 lung = tested on: NCI-H460 lung
SK-MEL-28 melanoma = tested on: SK-MEL-28 melanoma
T-47D breast = tested on: T-47D breast
SK-MEL-5 melanoma = tested on: SK-MEL-5 melanoma
K-562 leukemia = tested on: K-562 leukemia
786-0 renal = tested on: 786-0 renal
UO-31 renal = tested on: UO-31 renal
MOLT-4 leukemia = tested on: MOLT-4 leukemia
MCF7 breast = tested on: MCF7 breast
DU-145 prostate = tested on: DU-145 prostate
UACC-257 melanoma = tested on: UACC-257 melanoma
TK-10 renal = tested on: TK-10 renal
SNB-75 CNS = tested on: SNB-75 CNS
HS 578T breast = tested on: HS 578T breast
A498 renal = tested on: A498 renal
OVCAR-3 ovarian = tested on: OVCAR-3 ovarian
SNB-19 CNS = tested on: SNB-19 CNS
A549 NSCLC = tested on: A549 NSCLC
CAKI-1 renal = tested on: CAKI-1 renal
HL-60(TB) leukemia = tested on: HL-60(TB) leukemia
MALME-3M melanoma = tested on: MALME-3M melanoma
HCC-2998 colon = tested on: HCC-2998 colon
HOP-62 NSCLC = tested on: HOP-62 NSCLC
HOP-92 NSCLC = tested on: HOP-92 NSCLC
M14 melanoma = tested on: M14 melanoma
UACC-62 melanoma = tested on: UACC-62 melanoma
SK-MEL-2 melanoma = tested on: SK-MEL-2 melanoma
BT-549 breast = tested on: BT-549 breast
SW-620 colon = tested on: SW-620 colon
CCRF-CEM leukemia = tested on: CCRF-CEM leukemia
RPMI-8226 leukemia = tested on: RPMI-8226 leukemia
PC-3 prostate = tested on: PC-3 prostate
OVCAR-5 ovarian = tested on: OVCAR-5 ovarian
HCT-15 colon = tested on: HCT-15 colon
RXF 393 renal = tested on: RXF 393 renal
SK-OV-3 ovarian = tested on: SK-OV-3 ovarian
SF-295 CNS = tested on: SF-295 CNS
NCI-H226 lung = tested on: NCI-H226 lung
MDA-MB-435 = tested on: MDA-MB-435
HT29 colon = tested on: HT29 colon
SN12C renal = tested on: SN12C renal
IGROV1 ovarian = tested on: IGROV1 ovarian
EKVX NSCLC = tested on: EKVX NSCLC
OVCAR-8 ovarian = tested on: OVCAR-8 ovarian
KM12 colon = tested on: KM12 colon
MDA-MB-231 breast = tested on: MDA-MB-231 breast

## CC1(C)[C@@H](O)CC[C@]2(C)[C@H]3CC[C@@H]4[C@H]5[C@H](C(=O)/C=C\c6ccccn6)CC[C@]5(O)CC[C@@]4(C)[C@]3(C)CC[C@@H]12
SF-539 CNS
  GI50: 2.34 µM
  TGI: 6.34 µM
OVCAR-4 ovarian
  GI50: 3.92 µM
  TGI: 46.4 µM
ACHN renal
  GI50: 2.33 µM
  TGI: 6.28 µM
U251 CNS
  GI50: 1.61 µM
  TGI: 3.1 µM
SF-268 CNS
  GI50: 2.38 µM
  TGI: 8.44 µM
SR leukemia
  GI50: 1.71 µM
  TGI: 14.5 µM
NCI-H460 lung
  GI50: 1.9 µM
  TGI: 4.83 µM
SK-MEL-28 melanoma
  GI50: 2.04 µM
  TGI: 4.13 µM
T-47D breast
  GI50: 1.52 µM
  TGI: 8.62 µM
SK-MEL-5 melanoma
  GI50: 1.63 µM
  TGI: 3.05 µM
K-562 leukemia
  GI50: 2.25 µM
  TGI: > 100 µM
786-0 renal
  GI50: 2.23 µM
  TGI: 4.73 µM
UO-31 renal
  GI50: 1.6 µM
  TGI: 3.23 µM
MOLT-4 leukemia
  GI50: 2.39 µM
  TGI: > 100 µM
MCF7 breast
  GI50: 0.768 µM
  TGI: 4.54 µM
DU-145 prostate
  GI50: 1.75 µM
  TGI: 3.52 µM
UACC-257 melanoma
  GI50: 3.25 µM
  TGI: 39.2 µM
TK-10 renal
  GI50: 3.23 µM
  TGI: 9.31 µM
SNB-75 CNS
  GI50: 7.59 µM
  TGI: > 100 µM
HS 578T breast
  GI50: 6.84 µM
  TGI: > 100 µM
A498 renal
  GI50: 1.66 µM
  TGI: 4.33 µM
OVCAR-3 ovarian
  GI50: 1.87 µM
  TGI: 4.89 µM
SNB-19 CNS
  GI50: 2.77 µM
  TGI: 10.8 µM
A549 NSCLC
  GI50: 2.77 µM
  TGI: 9.37 µM
CAKI-1 renal
  GI50: 2.02 µM
  TGI: 8.4 µM
HL-60(TB) leukemia
  GI50: 1.81 µM
  TGI: 5.74 µM
MALME-3M melanoma
  GI50: 2.16 µM
  TGI: 4.78 µM
HCC-2998 colon
  GI50: 1.94 µM
  TGI: 3.52 µM
HOP-62 NSCLC
  GI50: 1.8 µM
  TGI: 4.99 µM
HOP-92 NSCLC
  GI50: 1.34 µM
  TGI: 3.74 µM
M14 melanoma
  GI50: 2.26 µM
  TGI: 5.87 µM
UACC-62 melanoma
  GI50: 1.74 µM
  TGI: 3.95 µM
SK-MEL-2 melanoma
  GI50: 2.61 µM
  TGI: 7.18 µM
BT-549 breast
  GI50: 1.96 µM
  TGI: 3.57 µM
SW-620 colon
  GI50: 1.93 µM
  TGI: 4.85 µM
CCRF-CEM leukemia
  GI50: 2.06 µM
  TGI: 8.51 µM
RPMI-8226 leukemia
  GI50: 1.76 µM
  TGI: 5.35 µM
PC-3 prostate
  GI50: 2.1 µM
  TGI: 6.24 µM
OVCAR-5 ovarian
  GI50: 2.89 µM
  TGI: 7.92 µM
HCT-15 colon
  GI50: 1.9 µM
  TGI: 5.52 µM
RXF 393 renal
  GI50: 1.74 µM
  TGI: 3.15 µM
SK-OV-3 ovarian
  GI50: 5.35 µM
  TGI: 30.7 µM
SF-295 CNS
  GI50: 2.61 µM
  TGI: 8.55 µM
NCI-H226 lung
  GI50: 3.05 µM
  TGI: 34.5 µM
MDA-MB-435
  GI50: 1.76 µM
  TGI: 3.75 µM
HT29 colon
  GI50: 3.33 µM
  TGI: > 100 µM
SN12C renal
  GI50: 3.08 µM
  TGI: > 100 µM
IGROV1 ovarian
  GI50: 1.9 µM
  TGI: 4.07 µM
EKVX NSCLC
  GI50: 2.62 µM
  TGI: 13.3 µM
OVCAR-8 ovarian
  GI50: 3.37 µM
  TGI: > 100 µM
KM12 colon
  GI50: 1.85 µM
  TGI: 3.96 µM
MDA-MB-231 breast
  GI50: 3.04 µM
  TGI: > 100 µM
